According to PMC8646019, “Azvudine is a thymus-homing anti-SARS-CoV-2 drug effective in treating COVID-19 patients” (Signal Transduction and Targeted Therapy, 2021):
Read-outs that look alike come from different tables or passages of the source.

Experiments:
[1] = Biodistribution and metabolism of remdesivir in rats (UHPLC-MS/MS); format: in vivo, Sprague-Dawley rats; settings: rat; for Concentration in PBMCs / Concentration in brain / Concentration in epididymis / Concentration in heart / Concentration in liver / Concentration in lung / concentration at 2 h / concentration at 6 h: GS-5734 100 mg/kg i.p.; for Concentration in PBMCs / Concentration in brain / Concentration in epididymis / Concentration in heart / Concentration in liver / Concentration in lung: average n=5; for concentration at 2 h / concentration at 6 h: male, Sprague-Dawley, in vivo, 100 mg/kg
Description: 10 male Sprague-Dawley rats (250 ± 25 g) were purchased from Vital River Laboratories Co., LTD (Beijng, China). The rats were divided randomly into two groups with five rats in each, and were administered with GS-5734 at a single dose of 100 mg/kg, i.p. At the time point of 2h and 6h after drug administration, rats in one group were dissected with euthanization and blood samples as well as heart, liver, spleen, lung, kidney, brain, thymus, testis, and epididymis were collected for UHPLC-MS/MS analysis as mentioned above.
The analysis method was like that for FNC expect that the flow rate was set at 0.4 mL/min and the gradient elution was employed using the following program: 0-1.5min, 100-65%B; 1.5-4min, 65-60%B; 4-5min, 60-56%B. Multiple-reaction monitoring (MRM) mode was performed using the characteristic precursor to product ion transitions (Supplementary Table 4b).
The standard curves of blank kidney tissue matrix, plasma matrix and PBMCs matrix were applied for quantitative analysis of GS-5734 and its metabolites. GS-5734, Nuc, Nuc-MP and Nuc-TP were quantified using their own standard curves, and the metabolites of GS-5734 (Ala-Nuc and Nuc-DP) were quantified using Nuc-MP standard curves.
Figure. S4. […] 10 male Sprague-Dawley rats were administered with GS-5734 at a single dose of 100 mg/kg, i.p. At the time point of 2 h and 6 h after drug administration, five rats were dissected. The blood samples as well as heart, liver, spleen, lung, kidney, brain, thymus, testis, and epididymis were collected for UHPLC-MS/MS analysis performed on a UHPLC system (1290 series, Agilent Technologies, US) coupled to a triple quadrupole mass spectrometer (Agilent 6470 QQQ). a.

SARS-CoV-2 [2] = assay: Anti-SARS-CoV-2 assay in Vero E6 cells (qRT-PCR of viral RNA copies, CPE); format: cell-based
[3] = Cytotoxicity in Vero E6 cells (Cell Titer 96 Aqueous one Solution Cell Proliferation Assay); format: cell-based; settings: African green monkey, Vero E6, 48 h
Description: (§1) The cytotoxicity of the tested drugs in Vero E6 or Calu-3 Cells were determined by Cell Titer 96® Aqueous one Solution Cell Proliferation Assay (Promega, US). To evaluate the antiviral efficacy of the drugs, Vero E6 or Calu-3 cells were cultured overnight in 96-well plate with a density of 4 ×10^4 cells/well. Cells were pre-treated with the different doses of the indicated antivirals for 1 h. Viruses (MOI=0.05) were subsequently added to cells, followed by 1 h incubation. Then, the virus-drug mixture was removed and cells were further cultured with fresh drug-containing medium. At 48 h post infection (pi), the culture supernatant was collected and lysed in Trizol (Thermo, Cat no. 15596018) for further analysis. Remdesivir was tested as reference.

SARS-CoV-2 [4] = assay: Anti-SARS-CoV-2 assay in Calu-3 cells (qRT-PCR); format: cell-based
[5] = Cytotoxicity in Calu-3 cells (Cell Titer 96 Aqueous one Solution Cell Proliferation Assay); format: cell-based; settings: human, Calu-3, 48 h
Description: as §1

HCoV-OC43 = assay: Anti-HCoV-OC43 assay in H460 cells (CPE, Western blot, immunofluorescence); format: cell-based
[6] = test system: SARS-CoV-2 and HCoV-OC43 coronavirus; assay: Anti-coronavirus activity in vitro, summary over viruses and cells; format: cell-based; settings: depending on viruses or cells

SMILES: C[C@H](NP(=O)(O)OC[C@H]1O[C@@](C#N)(c2ccc3c(N)ncnn23)[C@H](O)[C@@H]1O)C(=O)O [Ala-Nuc]
- Concentration in PBMCs ([1]; 2 h): 0.55 ng/10^6 cells
- Concentration in brain ([1]; 2 h): 24.16 ng/g tissue
- Concentration in epididymis ([1]; 2 h): 24.05 ng/g tissue
- Concentration in heart ([1]; 2 h): 3908.49 ng/g tissue
- Concentration in liver ([1]; 2 h): 1304.94 ng/g tissue
- Concentration in lung ([1]; 2 h): 82.87 ng/g tissue
- Concentration in PBMCs ([1]; 6 h): 0.50 ng/10^6 cells
- Concentration in brain ([1]; 6 h): 38.27 ng/g tissue
- Concentration in epididymis ([1]; 6 h): 48.37 ng/g tissue
- Concentration in heart ([1]; 6 h): 5730.68 ng/g tissue
- Concentration in liver ([1]; 6 h): 416.97 ng/g tissue
- Concentration in lung ([1]; 6 h): 73.42 ng/g tissue

SMILES: CCC(CC)COC(=O)[C@H](C)N[P@](=O)(OC[C@H]1O[C@@](C#N)(c2ccc3c(N)ncnn23)[C@H](O)[C@@H]1O)Oc1ccccc1 [Remdesivir, reference compound]
- concentration at 2 h ([1]; 2 h, average n=5, read-out: Concentration in brain): 0.61 ng/g
- concentration at 2 h ([1]; 2 h, average n=5, read-out: Concentration in epididymis): 42.1 ng/g
- concentration at 2 h ([1]; 2 h, average n=5, read-out: Concentration in heart): 5.12 ng/g
- concentration at 2 h ([1]; 2 h, average n=5, read-out: Concentration in kidney): 25.4 ng/g
- concentration at 2 h ([1]; 2 h, average n=5, read-out: Concentration in liver): 38.4 ng/g
- concentration at 2 h ([1]; 2 h, average n=5, read-out: Concentration in lung): 5.14 ng/g
- concentration at 2 h ([1]; 2 h, average n=5, read-out: Concentration in spleen): 39.4 ng/g
- concentration at 2 h ([1]; 2 h, average n=5, read-out: Concentration in testis): 2.88 ng/g
- concentration at 2 h ([1]; 2 h, average n=5, read-out: Concentration in thymus): 29.9 ng/g
- concentration at 6 h ([1]; 6 h, average n=5, read-out: Concentration in brain): 0.78 ng/g
- concentration at 6 h ([1]; 6 h, average n=5, read-out: Concentration in epididymis): 0.6 ng/g
- concentration at 6 h ([1]; 6 h, average n=5, read-out: Concentration in heart): 28.6 ng/g
- concentration at 6 h ([1]; 6 h, average n=5, read-out: Concentration in kidney): 0.84 ng/g
- concentration at 6 h ([1]; 6 h, average n=5, read-out: Concentration in liver): 13.1 ng/g
- concentration at 6 h ([1]; 6 h, average n=5, read-out: Concentration in lung): 0.87 ng/g
- concentration at 6 h ([1]; 6 h, average n=5, read-out: Concentration in spleen): 0.32 ng/g
- concentration at 6 h ([1]; 6 h, average n=5, read-out: Concentration in thymus): 2.74 ng/g

SMILES: N#C[C@@]1(c2ccc3c(N)ncnn23)O[C@H](COP(=O)(O)O)[C@@H](O)[C@H]1O [Nuc-MP]
- Concentration in PBMCs ([1]; 2 h): 0.44 ng/10^6 cells
- Concentration in epididymis ([1]; 2 h): 6493.99 ng/g tissue
- Concentration in lung ([1]; 2 h): 3904.37 ng/g tissue
- Concentration in PBMCs ([1]; 6 h): 0.32 ng/10^6 cells
- Concentration in epididymis ([1]; 6 h): 555.72 ng/g tissue
- Concentration in lung ([1]; 6 h): 309.88 ng/g tissue

SMILES: N#C[C@@]1(c2ccc3c(N)ncnn23)O[C@H](COP(=O)(O)OP(=O)(O)O)[C@@H](O)[C@H]1O [Nuc-DP]
- Concentration in PBMCs ([1]; 2 h): 0.15 ng/10^6 cells
- Concentration in epididymis ([1]; 2 h): 33.09 ng/g tissue
- Concentration in lung ([1]; 2 h): 146.16 ng/g tissue
- Concentration in PBMCs ([1]; 6 h): 0.14 ng/10^6 cells
- Concentration in epididymis ([1]; 6 h): 49.65 ng/g tissue
- Concentration in lung ([1]; 6 h): 118.94 ng/g tissue

SMILES: N#C[C@@]1(c2ccc3c(N)ncnn23)O[C@H](COP(=O)(O)OP(=O)(O)OP(=O)(O)O)[C@@H](O)[C@H]1O [Nuc-TP]
- Concentration in PBMCs ([1]; 2 h): 12.32 ng/10^6 cells
- Concentration in epididymis ([1]; 2 h): 486.87 ng/g tissue
- Concentration in lung ([1]; 2 h): 3168.31 ng/g tissue
- Concentration in PBMCs ([1]; 6 h): 12.82 ng/10^6 cells
- Concentration in epididymis ([1]; 6 h): 1225.27 ng/g tissue
- Concentration in lung ([1]; 6 h): 2057.66 ng/g tissue
- level of Nuc-TP in the thymus ([1]; remdesivir ip, 2 and 6 h): below the detectable line

SMILES: CC(C)OC(=O)[C@H](C)N[P@](=O)(OC[C@@]1(N=[N+]=[N-])O[C@@H](n2ccc(N)nc2=O)[C@@H](F)[C@@H]1O)Oc1ccccc1 [CL-236]
- EC50 (SARS-CoV-2 [2]; Severe acute respiratory syndrome coronavirus 2, Vero C1008, 48 h, Vero E6, MOI 0.05, qRT-PCR, 48 h, read-out: EC50, SARS-CoV-2 RNA replication): 4.31 µM
- selectivity index (SI) (SARS-CoV-2 [2]; Vero E6): 15.35
- cytopathic effect (CPE) of SARS-CoV-2 (SARS-CoV-2 [2]; Vero E6, 48 h): protected the cells from SARS-CoV-2-caused cell death
- CC50 at 48 h [3]: 66.2 µM
- selectivity index (SI) (SARS-CoV-2 [4]; Calu-3): 83
- EC50 (SARS-CoV-2 [4]; Severe acute respiratory syndrome coronavirus 2, Calu-3, MOI 0.05, qRT-PCR, 48 h, read-out: EC50, SARS-CoV-2 RNA replication): 1.2 µM
- CC50 at 48 h [5]: > 102 µM
- EC50 (HCoV-OC43; Betacoronavirus 1, OC43, NCI-H460, evaluated by CPE, read-out: EC50, HCoV-OC43 infection): 1.2 µM
- HCoV-OC43 N protein expression (HCoV-OC43; Western blot, 48 h): decrease in N protein expression
- SI (HCoV-OC43; evaluated by CPE): 20
- EC50 [6]: 1.2 to 4.3 µM
- selective index (SI) [6]: 15–83
